Assay results: paper PMC3609652 (The Biochemical journal, 2013)

Columns and labels:
[1] = molecular target: IgE^DNP (monoclonal anti-DNP IgE); assay: tryptophan fluorescence quenching titration with monovalent hapten; type: binding
[2] = molecular target: IgE^dansyl (monoclonal anti-dansyl IgE, clone 27–74); assay: as above; type: binding

Substance | Kd [1] | Kd [2]
DNP | 22 ± 2 nM | –
dansyl | – | 54 ± 4 nM
